Measured values: patent US11897862B2 (Gilead Sciences, Inc., priority 2022, dated 2024)

Key:
IKZF1 = target: T1, IKZF1 (Homo sapiens, UniProt Q13422+Q96SW2); assay: HEK293 HiBiT in vitro degradation of IKZF1; assay type: cell-based; conditions: for DC50: HEK293 HiBiT, 18-24 hr incubation, normalized to DMSO control, read-out: IKZF1 EC50; for Dmax: HEK293, HEK293 HiBiT, maximum degradation at the highest concentration tested
T1 construct: expressed in transfected cells
How it was run: (§1)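 Flp-In T-REx HEK293 stable pools carry a single integrated copy of C-terminal HiBiT-tagged IKZF1, IKZF2 or SALL4 under a tetracycline operator, induced overnight at 37 °C with doxycycline ([…] final). Cells were then treated with serially diluted compounds for 18-24 h. Nano-Glo lytic luminescence gave EC50 and Dmax.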

IKZF2 = IKZF2 (Homo sapiens, UniProt Q96SW2+Q9UKS7); assay: HEK293 HiBiT in vitro degradation of IKZF2; assay type: cell-based; set-up: expressed in transfected cells; conditions: for Dmax: HEK293, HEK293 HiBiT, maximum degradation at the highest concentration tested; for DC50: HEK293 HiBiT, 18-24 hr incubation, normalized to DMSO control, read-out: IKZF2 EC50
Sequence of IKZF2 (Q9UKS7 1-500 isoform Q9UKS7-2): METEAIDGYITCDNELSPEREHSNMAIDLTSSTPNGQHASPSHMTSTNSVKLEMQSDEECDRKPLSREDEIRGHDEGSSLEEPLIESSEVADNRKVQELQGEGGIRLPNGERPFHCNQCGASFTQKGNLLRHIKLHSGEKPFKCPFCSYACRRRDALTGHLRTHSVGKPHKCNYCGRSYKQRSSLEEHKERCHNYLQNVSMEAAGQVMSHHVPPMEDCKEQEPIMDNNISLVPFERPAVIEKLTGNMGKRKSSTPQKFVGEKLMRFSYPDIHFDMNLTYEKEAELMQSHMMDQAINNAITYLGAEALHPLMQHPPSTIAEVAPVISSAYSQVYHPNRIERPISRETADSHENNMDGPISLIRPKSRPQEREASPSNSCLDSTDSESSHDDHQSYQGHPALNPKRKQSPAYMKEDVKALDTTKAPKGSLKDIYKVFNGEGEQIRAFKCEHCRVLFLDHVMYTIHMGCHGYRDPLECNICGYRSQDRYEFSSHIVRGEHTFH
Sequence of IKZF2 (Q96SW2 whole entry): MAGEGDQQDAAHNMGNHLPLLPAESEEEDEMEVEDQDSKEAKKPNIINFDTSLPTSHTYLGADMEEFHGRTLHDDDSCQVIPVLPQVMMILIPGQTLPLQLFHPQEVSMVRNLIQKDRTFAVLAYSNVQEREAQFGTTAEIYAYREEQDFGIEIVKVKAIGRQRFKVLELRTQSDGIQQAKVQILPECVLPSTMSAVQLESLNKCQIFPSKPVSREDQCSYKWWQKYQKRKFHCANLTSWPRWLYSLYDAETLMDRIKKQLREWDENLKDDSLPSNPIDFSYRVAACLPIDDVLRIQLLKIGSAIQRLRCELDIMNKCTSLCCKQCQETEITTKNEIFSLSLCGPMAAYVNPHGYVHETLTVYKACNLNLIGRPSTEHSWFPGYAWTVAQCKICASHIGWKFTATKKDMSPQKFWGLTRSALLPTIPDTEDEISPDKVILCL
Sequence of IKZF2 (Q16531 whole entry partner): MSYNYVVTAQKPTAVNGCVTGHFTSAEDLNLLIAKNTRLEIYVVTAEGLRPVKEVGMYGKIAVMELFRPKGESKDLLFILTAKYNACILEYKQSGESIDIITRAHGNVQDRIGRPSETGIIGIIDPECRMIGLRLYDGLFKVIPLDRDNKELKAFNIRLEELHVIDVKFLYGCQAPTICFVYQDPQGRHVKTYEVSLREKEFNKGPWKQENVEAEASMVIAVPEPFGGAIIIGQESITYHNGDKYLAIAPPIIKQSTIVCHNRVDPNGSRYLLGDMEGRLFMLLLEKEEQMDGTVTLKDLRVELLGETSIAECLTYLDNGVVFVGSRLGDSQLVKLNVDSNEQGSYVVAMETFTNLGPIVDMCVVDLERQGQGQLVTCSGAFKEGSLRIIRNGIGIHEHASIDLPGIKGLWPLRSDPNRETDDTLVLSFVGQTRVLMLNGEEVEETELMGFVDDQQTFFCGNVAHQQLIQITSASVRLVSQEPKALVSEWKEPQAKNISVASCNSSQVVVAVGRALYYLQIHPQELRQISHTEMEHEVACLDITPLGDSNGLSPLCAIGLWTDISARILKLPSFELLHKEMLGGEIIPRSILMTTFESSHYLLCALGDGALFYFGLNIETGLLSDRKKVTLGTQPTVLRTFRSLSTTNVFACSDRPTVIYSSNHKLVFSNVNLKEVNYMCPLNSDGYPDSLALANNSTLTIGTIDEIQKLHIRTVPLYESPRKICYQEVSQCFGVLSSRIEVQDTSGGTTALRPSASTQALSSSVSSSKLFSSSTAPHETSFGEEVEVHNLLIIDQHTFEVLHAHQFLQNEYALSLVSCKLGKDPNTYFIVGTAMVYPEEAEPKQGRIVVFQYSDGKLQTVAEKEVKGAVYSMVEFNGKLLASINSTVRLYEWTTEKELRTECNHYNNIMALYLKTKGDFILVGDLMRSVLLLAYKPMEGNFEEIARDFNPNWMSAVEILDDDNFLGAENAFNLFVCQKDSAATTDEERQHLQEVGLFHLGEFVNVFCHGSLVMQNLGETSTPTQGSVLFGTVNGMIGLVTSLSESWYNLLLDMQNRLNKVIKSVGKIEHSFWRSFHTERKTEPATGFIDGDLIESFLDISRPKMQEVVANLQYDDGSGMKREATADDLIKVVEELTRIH
How it was run: as §1

T1 sequence (Q13422 whole entry): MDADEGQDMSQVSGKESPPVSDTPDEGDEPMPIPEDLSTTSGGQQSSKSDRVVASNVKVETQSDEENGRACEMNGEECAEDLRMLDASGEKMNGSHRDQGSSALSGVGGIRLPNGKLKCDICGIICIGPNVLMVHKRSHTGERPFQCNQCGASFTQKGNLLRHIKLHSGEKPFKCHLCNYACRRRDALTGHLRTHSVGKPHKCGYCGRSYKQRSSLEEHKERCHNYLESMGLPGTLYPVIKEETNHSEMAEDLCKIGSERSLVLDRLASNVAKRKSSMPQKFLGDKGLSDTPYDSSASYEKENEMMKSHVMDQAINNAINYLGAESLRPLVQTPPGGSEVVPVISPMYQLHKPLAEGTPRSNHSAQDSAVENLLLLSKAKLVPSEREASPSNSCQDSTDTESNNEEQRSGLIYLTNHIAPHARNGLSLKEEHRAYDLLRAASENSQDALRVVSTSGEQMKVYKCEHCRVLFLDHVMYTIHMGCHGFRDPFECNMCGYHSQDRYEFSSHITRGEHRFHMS
T1 sequence (Q96SW2 whole entry): as the sequence (Q96SW2 whole entry) above
T1 sequence (Q16531 whole entry partner): as the sequence (Q16531 whole entry partner) above

Structure (SMILES) | DC50 (IKZF1) [nM] | Dmax (IKZF2) [%] | DC50 (IKZF2) [nM] | Dmax (IKZF1) [%]
COc1ccc(CN[C@H]2CCCC[C@@H]2Cc2ccc3c(c2)CN(C2CCC(=O)NC2=O)C3=O)cc1 (stereo partly drawn) [Example 14, 3-(5-(((1R,2S)-2-((4-methoxybenzyl)amino)cyclohexyl)methyl)-1-oxoisoindolin-2-yl)piperidine-2,6-dione] | > 1000 | 88 | 27 | 
O=C1CCC(N2Cc3cc(C[C@H]4CCCC[C@@H]4NCc4cc(F)cc(F)c4)ccc3C2=O)C(=O)N1 (stereo partly drawn) [Example 15, 3-(5-(((1R,2S)-2-((3,5-difluorobenzyl)amino)cyclohexyl)methyl)-1-oxoisoindolin-2-yl)piperidine-2,6-dione] | > 1000 | 95 | 20 | 
O=C1CCC(N2Cc3cc(C[C@H]4CCCC[C@@H]4NCc4ccc(C(F)(F)F)cc4)ccc3C2=O)C(=O)N1 (stereo partly drawn) [Example 16, 3-(1-oxo-5-(((1R,2S)-2-((4-(trifluoromethyl)benzyl)amino)cyclohexyl)methyl)isoindolin-2-yl)piperidine-2,6-dione] | > 1000 | 87 | 42 | 
N#Cc1ccc(CN[C@H]2CCCC[C@@H]2Cc2ccc3c(c2)CN(C2CCC(=O)NC2=O)C3=O)c(F)c1 (stereo partly drawn) [Example 17, 4-((((1S,2R)-2-((2-(2,6-dioxopiperidin-3-yl)-1-oxoisoindolin-5-yl)methyl)cyclohexyl)amino)methyl)-3-fluorobenzonitrile] | > 1000 | 77 | 70 | 
O=C1CCC(N2Cc3cc(C[C@H]4CCCC[C@@H]4NCc4c(F)cccc4F)ccc3C2=O)C(=O)N1 (stereo partly drawn) [Example 18, 3-(5-(((1R,2S)-2-((2,6-difluorobenzyl)amino)cyclohexyl)methyl)-1-oxoisoindolin-2-yl)piperidine-2,6-dione] | > 1000 | 89 | 42 | 
O=C1CCC(N2Cc3cc(C[C@H]4CCCC[C@@H]4NCc4ccc(F)cc4F)ccc3C2=O)C(=O)N1 (stereo partly drawn) [Example 19, 3-(5-(((1R,2S)-2-((2,4-difluorobenzyl)amino)cyclohexyl)methyl)-1-oxoisoindolin-2-yl)piperidine-2,6-dione] | > 1000 | 89 | 30 | 
N#Cc1ccc(CN[C@H]2CCCC[C@@H]2Cc2ccc3c(c2)CN(C2CCC(=O)NC2=O)C3=O)cc1 (stereo partly drawn) [Example 20, 4-((((1S,2R)-2-((2-(2,6-dioxopiperidin-3-yl)-1-oxoisoindolin-5-yl)methyl)cyclohexyl)amino)methyl)benzonitrile] | 99 | 94 | 19 | 35
CN(Cc1ccccc1)[C@H]1CCCC[C@@H]1Cc1ccc2c(c1)CN(C1CCC(=O)NC1=O)C2=O (stereo partly drawn) [Example 21, 3-(5-(((1R,2S)-2-(benzyl(methyl)amino)cyclohexyl)methyl)-1-oxoisoindolin-2-yl)piperidine-2,6-dione] | > 1000 | 49 | 409 | 
O=C1CCC(N2Cc3cc(C[C@H]4CCCC[C@@H]4NCc4cc(F)ccc4F)ccc3C2=O)C(=O)N1 (stereo partly drawn) [Example 22, 3-(5-(((1R,2S)-2-((2,5-difluorobenzyl)amino)cyclohexyl)methyl)-1-oxoisoindolin-2-yl)piperidine-2,6-dione] | > 1000 | 86 | 34 | 
[2H]c1c([2H])c([2H])c(CN(Cc2c([2H])c([2H])c([2H])c([2H])c2[2H])[C@H]2CCCC[C@@H]2Cc2ccc3c(c2)CN(C2CCC(=O)NC2=O)C3=O)c([2H])c1[2H] (stereo partly drawn) [Example 26, 3-(5-(((1R,2S)-2-(bis((phenyl-d5)methyl)amino)cyclohexyl)methyl)-1-oxoisoindolin-2-yl)piperidine-2,6-dione] | > 1000 | 57 | 530 | 
CC1(C)CCC(N[C@H]2CCCC[C@@H]2Cc2ccc3c(c2)CN(C2CCC(=O)NC2=O)C3=O)CC1 (stereo partly drawn) [Example 27, 3-(5-(((1R,2S)-2-((4,4-dimethylcyclohexyl)amino)cyclohexyl)methyl)-1-oxoisoindolin-2-yl)piperidine-2,6-dione] | 70 | 97 | 3 | 27
O=C1CCC(N2Cc3cc(C[C@H]4CCCC[C@@H]4NC4CC5CC(C5)C4)ccc3C2=O)C(=O)N1 (stereo partly drawn) [Example 29, 3-(5-(((1R,2S)-2-(bicyclo[3.1.1]heptan-3-ylamino)cyclohexyl)methyl)-1-oxoisoindolin-2-yl)piperidine-2,6-dione] | 574 | 96 | 5 | 39
O=C1CCC(N2Cc3cc(C[C@H]4CCCC[C@@H]4N4CC(Oc5ccccc5Cl)C4)ccc3C2=O)C(=O)N1 (stereo partly drawn) [Example 30, 3-(5-(((1R,2S)-2-(3-(2-chlorophenoxy)azetidin-1-yl)cyclohexyl)methyl)-1-oxoisoindolin-2-yl)piperidine-2,6-dione] | 42 | 81 | 29 | 34
CCOC1CN([C@H]2CCCC[C@@H]2Cc2ccc3c(c2)CN(C2CCC(=O)NC2=O)C3=O)C1 (stereo partly drawn) [Example 31, 3-(5-(((1R,2S)-2-(3-ethoxyazetidin-1-yl)cyclohexyl)methyl)-1-oxoisoindolin-2-yl)piperidine-2,6-dione] | > 1000 | 85 | 30 | 
O=C1CCC(N2Cc3cc(C[C@H]4CCCC[C@@H]4N4CC(Oc5ccccc5)C4)ccc3C2=O)C(=O)N1 (stereo partly drawn) [Example 32, 3-(1-oxo-5-(((1R,2S)-2-(3-phenoxyazetidin-1-yl)cyclohexyl)methyl)isoindolin-2-yl)piperidine-2,6-dione] | > 1000 | 90 | 21 | 
O=C1CCC(N2Cc3cc(C[C@H]4CCCC[C@@H]4N4CC(OCc5ccccc5)C4)ccc3C2=O)C(=O)N1 (stereo partly drawn) [Example 33, 3-(5-(((1R,2S)-2-(3-(benzyloxy)azetidin-1-yl)cyclohexyl)methyl)-1-oxoisoindolin-2-yl)piperidine-2,6-dione] | > 1000 | 82 | 18 | 
O=C1CCC(N2Cc3cc(C[C@H]4CCCC[C@@H]4N4CC5(CN(Cc6ccccc6Cl)C5)C4)ccc3C2=O)C(=O)N1 (stereo partly drawn) [Example 34, 3-(5-(((1R,2S)-2-(6-(2-chlorobenzyl)-2,6-diazaspiro[3.3]heptan-2-yl)cyclohexyl)methyl)-1-oxoisoindolin-2-yl)piperidine-2,6-dione] | 51 | 80 | 28 | 29
O=C1CCC(N2Cc3cc(C[C@H]4CCCC[C@@H]4NCc4cscn4)ccc3C2=O)C(=O)N1 (stereo partly drawn) [Example 36, 3-(1-oxo-5-(((1R,2S)-2-((thiazol-4-ylmethyl)amino)cyclohexyl)methyl)isoindolin-2-yl)piperidine-2,6-dione] | 101 | 89 | 46 | 33
O=C1CCC(N2Cc3cc(C[C@H]4CCCC[C@@H]4NCc4nccs4)ccc3C2=O)C(=O)N1 (stereo partly drawn) [Example 37, 3-(1-oxo-5-(((1R,2S)-2-((thiazol-2-ylmethyl)amino)cyclohexyl)methyl)isoindolin-2-yl)piperidine-2,6-dione] | > 1000 | 69 | 172 | 
Cn1ccc(CN[C@H]2CCCC[C@@H]2Cc2ccc3c(c2)CN(C2CCC(=O)NC2=O)C3=O)n1 (stereo partly drawn) [Example 38, 3-(5-(((1R,2S)-2-(((1-methyl-1H-pyrazol-3-yl)methyl)amino)cyclohexyl)methyl)-1-oxoisoindolin-2-yl)piperidine-2,6-dione] | > 1000 | 97 | 192 | 
